The text below walks through data of ChEMBL document CHEMBL2218064, “Structure-activity relationship data for chemical series of antagonists of the P2X7 receptor (Supplementary Bioactivity Data for publication CHEMBL1157114)”.

The experiment addresses T1, P2X purinoceptor 7 (Homo sapiens, UniProt Q99572).
T1 sequence (Q99572 whole entry): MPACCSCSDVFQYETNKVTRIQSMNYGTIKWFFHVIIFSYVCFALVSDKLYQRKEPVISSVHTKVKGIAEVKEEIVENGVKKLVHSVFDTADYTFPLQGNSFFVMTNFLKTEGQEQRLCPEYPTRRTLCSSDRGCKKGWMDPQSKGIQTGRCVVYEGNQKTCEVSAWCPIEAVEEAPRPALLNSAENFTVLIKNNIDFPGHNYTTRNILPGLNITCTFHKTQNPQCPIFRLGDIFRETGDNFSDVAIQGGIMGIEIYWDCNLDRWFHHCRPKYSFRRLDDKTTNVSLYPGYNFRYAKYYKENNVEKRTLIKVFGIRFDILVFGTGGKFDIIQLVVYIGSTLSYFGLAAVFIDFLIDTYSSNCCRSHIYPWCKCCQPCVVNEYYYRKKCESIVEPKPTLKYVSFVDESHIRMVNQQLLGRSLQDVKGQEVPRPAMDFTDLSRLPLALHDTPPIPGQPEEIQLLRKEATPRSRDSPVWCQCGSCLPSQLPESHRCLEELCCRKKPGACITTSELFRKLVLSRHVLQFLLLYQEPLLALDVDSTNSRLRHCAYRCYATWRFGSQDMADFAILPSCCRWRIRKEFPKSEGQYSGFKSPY
Put plainly: SUPPLEMENTARY: Inhibition of human P2X7 receptor assessed as inhibition of ethidium bromide accumulation. Same assay as CHEMBL1103860.
Take `O=C(c1cccc(C(F)(F)F)c1Cl)N1CCn2c(nnc2-c2cccnn2)C1`: the IC50 was 0.0126 µM. With `O=C(NCc1cccc(C(F)(F)F)c1Cl)[C@@H]1CCC(=O)N1C1CCC1`, the IC50 is 0.002 µM. Under `CC(C)N1CCN(C(=O)c2cccc(C(F)(F)F)c2Cl)CC1=O` stands 0.1 µM; under `Cc1ccc(-n2nc(C)c(CC(=O)NCc3ccc(F)cc3Cl)c2C)nn1`, 0.631 µM; under `CN1C(=O)OC[C@@H]1C(=O)NCc1cccc(C(F)(F)F)c1Cl`, 0.0501 µM. With `Cc1cccc(C)c1N1CCN(Cc2ccc(F)cc2Cl)C(=O)C1=O`, the IC50 was 0.00316 µM.

For the compound `COc1ncccc1-n1nc(C)c(CC(=O)NCc2ccc(F)cc2Cl)c1C`, the IC50 is 0.251 µM. Regarding `O=C(Cc1cn(CCNCCO)nc1C(F)(F)F)NCc1ccc(F)cc1Cl`, the IC50 was 0.631 µM.

Consider `CN1C(=O)N(c2cncnc2)C[C@H]1C(=O)NCc1ccc(Cl)cc1Cl`, for which the IC50 was 0.0501 µM. Regarding `Cc1ccc(N2C[C@@H](C(=O)NCc3ccc(Cl)cc3Cl)N(C)C2=O)cn1`, the IC50 is 0.0251 µM.

Take `Cc1cccnc1N1CCN(Cc2ccc(F)cc2Cl)C(=O)C1=O`: the IC50 was 0.631 µM. For `CN1C(=O)CC[C@H]1C(=O)NCc1ccc(F)c(C(F)(F)F)c1Cl` the value was 0.00316 µM; for `CCN1C(=O)CC[C@H]1C(=O)NCc1ccc(C(F)(F)F)cc1`, 0.2 µM; for `O=C(c1cccc(C(F)(F)F)c1Cl)N1CCN(c2ccc(F)cc2Cl)C(=O)C1`, 0.0158 µM.

For the compound `CN1C(=O)N(c2ncc(F)cn2)C[C@H]1C(=O)NCc1ccc(Cl)cc1Cl`, the IC50 was 0.00398 µM. With `O=C1C(=O)N(c2cccc3cccnc23)CCN1Cc1ccc(F)cc1Cl`, the IC50 was 1 µM.
